Test results published in paper PMC10980815, “Cell surface patching via CXCR4-targeted nanothreads for cancer metastasis inhibition” (Nature Communications, 2024).
Ends that are not written are not given here.

What was measured:
[1] = tested on: 4T1 cells; assay: Transwell invasion assay (matrigel); type: cell-based, murine
Experimental: Wound healing assay and transwell migration and invasion assay were conducted to investigate in vitro metastasis inhibition. For the wound healing assay, 4T1 cells (5 × 10^5 cells) were cultured in 12-well plates (NEST Biotechnology) as monolayer with more than 90% coverage. Sterile 200 μL pipette tips were used to scrape off the cells, generating a linear cell-free area in the middle of the well. Subsequently, cells were washed by PBS to remove debris. In the stimulated group, 4T1 cells were stimulated with CXCL12 (100 ng/mL) for 1 h. […] In the P-BS-CM1 → P-CM2 group, 4T1 cells underwent consecutive treatment with P-BS-CM1 for 1 h and P-CM2 for 1 h before CXCL12 stimulation (1 mg/mL BS equivalence, CM1:CM2, 1:1 mol%). Images of the wound were recorded by a microscope at 0 h and 24 h after CXCL12 stimulation, and the wound healing rate was calculated using Image J software. For the transwell migration and invasion assay, 4T1 cells (5 × 10^5 cells) were seeded in the non-coated upper chamber (Millipore, 8 μm) or GelNest™ matrigel (NEST Biotechnology) pre-coated upper chamber. The cells underwent the same treatment conditions as wound healing assay. After 24 h of treatment, migrated or invaded cells across the membrane were stained with 0.1% crystal violet, imaged by microscope, and quantified by absorbance at 570 nm after dissolution.

[2] = tested on: orthotopic 4T1 breast tumors; assay: Tumor-infiltrating CD8+ T lymphocytes, Tregs and MDSCs (flow cytometry); type: in vivo, female BALB/c mice; conditions: for CD3+CD8+ T cells (%) in tumor / CD11b+Gr1+ MDSCs (%) in tumor / Tregs (%) in CD4+ T cells: Supplementary Fig. 16a; for intratumoral Tregs and MDSCs: three i.v. cycles days 7, 14, 21, day 28, no PDT
Experimental: 4T1 cells (1 × 10^6 cells) were injected into the third mammary fat pad of female BALB/c mice (6–8-week). When tumor volumes reached nearly […] on day 7 after tumor inoculation, mice were randomly divided into 8 groups (n = 8 per group). For four groups without laser irradiation (−), mice were intravenously injected with the following samples: (1) saline on day 7, 14, 21, and 28, (2) P-PS on day 7, 14, 21, and 28, (3) P-BS-PS on day 7, 14, 21, and 28, or (4) P-BS-CM1 on day 7, 14, 21, and 28, followed by P-PS-CM2 on day 8, 15, 22, and 29 (5 mg/kg BS equivalence, CM1:CM2 1:1 mol%, 2.5 mg/kg PS equivalence), respectively. For four groups with laser irradiation (+), mice were treated with the same regimens and irradiated at 650 nm laser (580 mW/cm^2, 5 min) on day 9, 16, 23 and 30. Tumor volumes and mice survivals were recorded every other day. For the investigation of immune response and lung metastasis, 4T1 tumor-bearing female BALB/c mice (6–8-week, tumor volume~100 mm^3) were randomly divided into 8 groups (n = 5 per group) and given three rounds of above treatments. On day 28, lungs and tumors were harvested. lungs were fixed with Bouin’s solution. The pulmonary metastatic nodules were counted and analyzed by hematoxylin-eosin staining. Single-cell suspensions of tumor tissues were stained with anti-CD45-PerCP/Cy5.5 (1:300 dilution) and anti-calreticulin recombinant rabbit monoclonal antibody (1:500 dilution) at 4 °C for 1 h, and then stained with goat anti-rabbit IgG H&L Alexa Fluor® 647 (1:1000 dilution, 4 °C, 45 min), followed by flow cytometry analysis. ATP and HMGB1 concentrations in the supernatant of cell suspension were measured using a luciferase-based ATP assay kit and a mouse HMGB1 ELISA kit, respectively. Single-cell suspensions of tumors were stained with FITC anti-mouse CD3 antibody (1:300 dilution), PerCP/Cyanine5.5 anti-mouse CD4 antibody (1:300 dilution), anti-CD8α-APC (1:300 dilution), and anti-Foxp3-PE (1:300 dilution) for flow cytometry analysis of T cell subtypes (CD8^+ T cells, CD4^+ effector T cells, and Foxp3^+ regulatory T cells), and stained with PE anti-mouse/human CD11b antibody (1:300 dilution) and FITC anti-mouse Ly-6G/Ly-6C (Gr-1) antibody (1:300 dilution) for flow cytometry analysis of MDSCs (CD11b^+Gr1^+). Cytotoxic T cells in tumor tissues were investigated with immunofluorescent staining of IFN-γ and flow cytometry analysis using anti-IFN-γ-PE (1:300 dilution). For CD8-depletion assay, 4T1 tumor-bearing female BALB/c mice (6–8-week, tumor volume~100 mm^3) were randomly divided into 3 groups (n = 8 per group). Mice were intravenously given four doses of P-BS-CM1 on day 7, 14, 21 and 28, combined with P-PS-CM2 on day 8, 15, 22 and 29 (5 mg/kg BS equivalence, CM1:CM2 1:1 mol%, 2.5 mg/kg PS equivalence) in the presence or absence of InvivoMab anti-mouse CD8α (100 μg/mice). Mice were irradiated at 650 nm laser (580 mW/cm^2, 5 min) on day 9, 16, 23 and 30. Tumor volumes and mice survivals were recorded every other day.

[3] = tested on: orthotopic 4T1 breast tumors; assay: Spontaneous lung metastasis model: tumor volume and pulmonary metastatic nodules; type: in vivo, female BALB/c mice; conditions: for Number of metastatic nodules: Fig. 5e, pulmonary
Experimental: For the in vivo investigation of pulmonary metastasis, 4T1 cells (1 × 10^6 cells) were injected into the third mammary fat pad of female BALB/c mice (6–8 weeks). […] Tumor volumes were recorded every other day. On day 28, lungs were harvested and fixed with Bouin’s solutions. The pulmonary metastatic nodules were counted and analyzed by hematoxylin-eosin staining.

Substance	Invasion content (%) ([1]; replicate 1)	Invasion content (%) ([1]; replicate 2)	Invasion content (%) ([1]; replicate 3)	CD3+CD8+ T cells (%) in tumor ([2]; replicate 1 of 5) [%]	CD11b+Gr1+ MDSCs (%) in tumor ([2]; replicate 1 of 5) [%]	Tregs (%) in CD4+ T cells ([2]; replicate 1 of 5) [%]	CD3+CD8+ T cells (%) in tumor ([2]; replicate 2 of 5) [%]	CD11b+Gr1+ MDSCs (%) in tumor ([2]; replicate 2 of 5) [%]	Tregs (%) in CD4+ T cells ([2]; replicate 2 of 5) [%]	CD3+CD8+ T cells (%) in tumor ([2]; replicate 3 of 5) [%]	CD11b+Gr1+ MDSCs (%) in tumor ([2]; replicate 3 of 5) [%]	Tregs (%) in CD4+ T cells ([2]; replicate 3 of 5) [%]	CD3+CD8+ T cells (%) in tumor ([2]; replicate 4 of 5) [%]	CD11b+Gr1+ MDSCs (%) in tumor ([2]; replicate 4 of 5) [%]	Tregs (%) in CD4+ T cells ([2]; replicate 4 of 5) [%]	CD3+CD8+ T cells (%) in tumor ([2]; replicate 5 of 5) [%]	CD11b+Gr1+ MDSCs (%) in tumor ([2]; replicate 5 of 5) [%]	Tregs (%) in CD4+ T cells ([2]; replicate 5 of 5) [%]	intratumoral Tregs and MDSCs [2]	Number of metastatic nodules ([3]; mouse 1)	further results
LGASWHRPDKCCLGYQKRPLPA [Free BS]	100.41	88.2	97.02	0.123	19.37	22.46	0.1188	18.11	19.38	0.1444	26.3	19.75	0.1085	21.21	21.91	0.1016	17.61	22.71	not affected	31	Number of metastatic nodules ([3]; mouse 2): 28; Number of metastatic nodules ([3]; mouse 3): 25; Number of metastatic nodules ([3]; mouse 4): 36; Number of metastatic nodules ([3]; mouse 5): 27; lung metastatic nodule burden at endpoint ([3]; three weekly i.v. cycles, day 28): high metastatic nodule burdens
P-BS: HPMA copolymer-BS conjugate, ~6 BS grafts per polymer (LGASWHRPDKCCLGYQKRPLPA; not fully specified (residues 11, 12); also: about 6 peptides grafted on HPMA copolymer via cysteine-maleimide thioether links)	61.3	50.16	42.1	0.1153	12.4	15.81	0.2531	14.84	15.31	0.2407	14.8	13.12	0.1577	14.66	11.55	0.2259	15.36	16.67	moderately decreased	15	Number of metastatic nodules ([3]; mouse 2): 17; Number of metastatic nodules ([3]; mouse 3): 22; Number of metastatic nodules ([3]; mouse 4): 19; Number of metastatic nodules ([3]; mouse 5): 28
